Measured values published in US8604029B2, “2-[(2-substituted)-indolizin-3-yl]-2-oxo-acetamide derivatives as antifungal agents” (F2G Ltd British Body Corporate, priority 2006, dated 2013).
≈ marks a conversion by molar mass, not a printed value.

Assays:
Assay type in all cases: cell-based
[1] = system: Fusarium solani; test: 24 hr MIC measurement, RPMI medium; details: Fusarium solani FS2, MIC banded into grades
Description: Between 1 and 5 mgs of compound were accurately weighed out into a sterile Eppendorf tube. The compound was dissolved in DMSO to give a solution containing […]. Tubes were stored at −20° C. until required.
On the day of testing thawed solutions were vortex mixed to ensure homogeneity. 30 μL of solution was removed and added to 570 μL of sterile water in a separate sterile Eppendorf. The thoroughly mixed solution was used to prepare a series of doubling dilutions in water, in a deep well plate. Thirteen replicate plates were prepared using a Minitrak by aspirating 20 μL from each well into eleven clear polystyrene 96 well plates.
Spores of Aspergillus spp. […]
This produced MIC plates with a drug range 50-0.05 mg/L and organism inocula of 1-2×10^4 cfu/mL for Aspergillus spp. and other filamentous fungi and 1-2×10^3 cfu/mL for yeasts. […] Growth was assessed by monitoring the optical density at 485 nm for each well. […] MICs are recorded as mg/L. Other growth media can be used for susceptibility testing, and the activity of the described compounds can also be assessed in a medium comprising 1% glucose, 1% ammonium chloride and 0.5% yeast extract (YAG medium). […] Growth was assessed by monitoring the optical density at 485 nm for each well. […]

[2] = system: Aspergillus flavus; test: MIC measurement, YAG medium; details: MIC banded into grades, lowest concentration inhibiting growth by >70%; for MIC: Aspergillus flavus
Outline: (§1)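 Spores from 5-day Sabouraud agar cultures were diluted in YAG medium (1% glucose, 1% ammonium chloride, 0.5% yeast extract) to a final inoculum of 1-2×10^4 cfu/mL, with drug at 50-0.05 mg/L. Plates were incubated 24 h at 35° C and read as OD 485 nm. MIC is the lowest concentration giving >70% inhibition versus drug-free control, in mg/L.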

[3] = system: Aspergillus niger; test: MIC measurement, YAG medium; details: MIC banded into grades; for MIC: Aspergillus niger
Outline: as §1

[4] = system: Aspergillus fumigatus AF210; test: MIC measurement, YAG medium; details: MIC banded into grades; for MIC: Aspergillus fumigatus, strain AF210, read-out: MIC A. fumigatus 210
Outline: as §1

[5] = system: Aspergillus terreus; test: MIC measurement, YAG medium; details: MIC banded into grades, strain not named in head (AT4); for MIC: Aspergillus terreus
Outline: as §1

[6] = system: Aspergillus terreus AT49; test: MIC measurement, YAG medium; details: MIC banded into grades; for MIC: Aspergillus terreus, strain AT49, read-out: MIC A. terreus 49
Outline: as §1

[7] = system: Aspergillus fumigatus; test: MIC measurement, YAG medium; details: YAG medium, MIC banded into grades, strain AF293; for MIC: Aspergillus fumigatus, read-out: MIC A. fumigatus
Outline: as §1

Structure (SMILES) | MIC [1] [µg/mL] | MIC [2] [µg/mL] | MIC [3] [µg/mL] | MIC [4] [µg/mL] | MIC [5] [µg/mL] | MIC [6] [µg/mL] | MIC [7] [µg/mL] | MIC A. flavus [2] | MIC A. niger [3] | MIC A. fumigatus 210 ([4]; strain AF210) | MIC A. terreus [5] | MIC A. terreus 49 ([6]; strain AT49) | MIC A. fumigatus [7]
C=C1CCN(c2ccc(NC(=O)C(=O)c3c(-c4ccccc4)cc4ccccn34)cc2)CC1 [Example 3, N-[4-(4-methylene-piperidin-1-yl)-phenyl]-2-oxo-2-(2-phenyl-indolizin-3yl) acetamide] | < 1 | < 1 | < 1 | < 1 | < 1 | < 1 | < 1 |  |  |  |  |  | 
C[C@@H]1CN(C2CCN(c3ccc(NC(=O)C(=O)c4c(-c5ccccc5)cc5ccccn45)cc3)CC2)C[C@H](C)O1 [Example 24, N-{4-[4-(2,6-Dimethyl-morpholin-4-yl)-piperidin-1-yl]-phenyl}-2-oxo-2-(2-phenyl-indolizin-3-yl)-acetamide] | 1 to 10 (≈ 1.86 to 18.6 µM) | < 1 | < 1 | < 1 | < 1 | < 1 | < 1 |  |  |  |  |  | 
O=C(Nc1ccc(N2CCN(Cc3cccs3)CC2)cc1)C(=O)c1c(-c2ccccc2)cc2ccccn12 [Example 33, 2-Oxo-2-(2-phenylindolizin-3-yl)-N-[4-(4-thiophen-2-ylmethylpiperazin-1-yl)phenyl] acetamide] |  | < 1 | < 1 | < 1 | < 1 | < 1 | < 1 |  |  |  |  |  | 
O=C(Nc1ccc(N2CCN(Cc3ccco3)CC2)nc1)C(=O)c1c(-c2ccccc2)cc2ccccn12 [Example 34] |  | < 1 | < 1 | < 1 | < 1 | < 1 | < 1 |  |  |  |  |  | 
Cc1ccccc1-c1cc2ccccn2c1C(=O)C(=O)Nc1ccc(N2CCN(Cc3ccco3)CC2)cn1 [Example 35, N-[5-(2-Furan-2-yl-methyl-piperazin-yl)-peridin-2-yl]-2-oxo-2-(2-o-tolyl-indolizin-3-yl)-acetamide] |  |  |  |  |  |  |  | 3 (A grade of 3 represents an MIC of less than 1 mg/L) | 3 (A grade of 3 represents an MIC of less than 1 mg/L) | 3 (A grade of 3 represents an MIC of less than 1 mg/L) | 3 (A grade of 3 represents an MIC of less than 1 mg/L) | 3 (A grade of 3 represents an MIC of less than 1 mg/L) | 3 (A grade of 3 represents an MIC of less than 1 mg/L)
O=C(Nc1ccc(N2CCN(CCc3ccccn3)CC2)cc1)C(=O)c1c(-c2ccccc2)cc2ccccn12 [Example 36, 2-Oxo-2-(2-phenyl-indolizin-3-yl)-N-{4-[4-(2-pyridin-yl-ethyl)-perazin-1-yl]-phenyl}-acetamide] |  | < 1 | < 1 | < 1 | < 1 | < 1 | < 1 |  |  |  |  |  | 
O=C(Nc1ccc(N2CCN(c3ccccn3)CC2)cc1)C(=O)c1c(-c2ccccc2)cc2ccccn12 [Example 41, 2-Oxo-2-(2-phenyl-indolizin-3yl)-N-[4-(4-pyridin-2-yl-piperizin-1-yl)-phenyl]-acetamide] |  | < 1 | < 1 | < 1 | < 1 | < 1 | < 1 |  |  |  |  |  | 
O=C(Nc1ccc(N2CCN(c3ccccn3)CC2)cc1)C(=O)c1c(-c2ccccc2)cc2ccc(F)cn12 [Example 42, 2-(6-Fluoro-2-phenyl-indolizin-3-yl)-2-oxo-N-[4-(4-pyridin-2-yl-piperazin-1-yl)phenyl] acetamide] |  | < 1 | < 1 | < 1 | < 1 | < 1 | < 1 |  |  |  |  |  | 
Cc1cc(N2CCN(c3ccc(NC(=O)C(=O)c4c(-c5ccccc5)cc5ccccn45)cc3)CC2)nc(C)n1 [Example 45] |  | < 1 | 1 to 10 (≈ 1.88 to 18.8 µM) | < 1 | < 1 | < 1 | < 1 |  |  |  |  |  | 
Cc1cc(C)nc(N(C)CCCc2ccc(NC(=O)C(=O)c3c(-c4ccccc4)cc4ccccn34)cc2)c1 [Example 70, N-(4-{3-[(4,6-Dimethyl-pyridin-2-yl)-methyl-amino]-propyl}-phenyl)-2-oxo-2-(2-phenyl-indolizin-3-yl)-acetamide] |  | < 1 | < 1 | < 1 | < 1 | < 1 | < 1 |  |  |  |  |  | 
O=C(Nc1ccc(N2CCN(c3ccc(CN4CCOCC4)cn3)CC2)cc1)C(=O)c1c(-c2ccccc2)cc2ccccn12 [Example 77, N-{4-[4-(5-morpholin-4-yl-methyl-pyridin-2-yl)-piperazin-1-yl]-phenyl}-2-oxo-2-(2-phenyl-indolizin-3-yl)-acetamide] |  | < 1 | < 1 | < 1 | < 1 | < 1 | < 1 |  |  |  |  |  | 
